Here are results for two molecules from publication PMC6944758 (The FEBS journal, 2019).

Assay [1] deals with T1, ALDH7A1 (Homo sapiens, UniProt P49419).
T1 sequence (P49419 1-511 isoform P49419-2): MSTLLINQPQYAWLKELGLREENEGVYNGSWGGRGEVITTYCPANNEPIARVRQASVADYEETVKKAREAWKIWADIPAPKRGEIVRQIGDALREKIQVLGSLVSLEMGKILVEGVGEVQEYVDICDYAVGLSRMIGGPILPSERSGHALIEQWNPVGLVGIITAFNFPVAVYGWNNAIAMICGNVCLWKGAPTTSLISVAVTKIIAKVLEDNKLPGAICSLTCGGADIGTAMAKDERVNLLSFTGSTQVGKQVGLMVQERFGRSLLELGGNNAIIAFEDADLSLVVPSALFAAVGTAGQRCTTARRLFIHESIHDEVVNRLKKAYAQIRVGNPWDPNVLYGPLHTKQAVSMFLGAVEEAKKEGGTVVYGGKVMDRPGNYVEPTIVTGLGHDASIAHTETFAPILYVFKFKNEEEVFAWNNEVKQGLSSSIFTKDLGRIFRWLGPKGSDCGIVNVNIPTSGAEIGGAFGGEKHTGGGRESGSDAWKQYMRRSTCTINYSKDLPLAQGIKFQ
The assay can be described thus: X-ray crystal structure, co-crystallization. It counts as binding. The following applies: 15 mM NAD+, pH 6.8, 1.85 Å; Rossmann fold cofactor site.

Assay [2] deals with T1, ALDH7A1. Kind of assay: X-ray crystal structure, co-crystallization. It counts as binding. Particulars: 175 mM PA, pH 7.2, 1.88 Å; aldehyde substrate site.

Regarding `NC(=O)c1ccc[n+]([C@@H]2O[C@H](COP(=O)(O)OP(=O)(O)OC[C@H]3O[C@@H](n4cnc5c(N)ncnc54)[C@H](O)[C@@H]3O)[C@@H](O)[C@H]2O)c1` [NAD^+], in assay [1], the “X-ray crystal structure, co-crystallization” value was “The structures of W175G and W175A complexed with NAD^+ were determined”. Turning to `O=C(O)[C@@H]1CCCCN1` [PA, L-pipecolic acid], the “X-ray crystal structure, co-crystallization” value in assay [2] is “we obtained a structure of W175A complexed with the P6C analog L-pipecolic acid (PA)”.
